From patent publication US12264173B2 (GILEAD SCIENCES, INC., priority 2020, dated 2025)

Experiments:
Assay type in all cases: cell-based
RSV A2 = assay: RSV NHBE EC50 (RSV A2 antiviral assay in NHBE cells); conditions: human respiratory syncytial virus, NHBE, 96 h, Table 3; NHBE cells, RSV A2, 4 days; read-out: RSV NHBE EC50
Outline: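 Luminescent ATP-based viability was recorded in RSV A2-infected normal human bronchial epithelial cells exposed to serially diluted compound (3-fold steps, 0.05% DMSO). Infection used 1×10^4.5 TCID/mL, with a 4-day incubation at 37° C.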

RSV strain A2 = assay: microbe, parasite or virus in culture; conditions: human respiratory syncytial virus, HEp-2, 96 h, Table 3; HEp-2 cells, RSV A2, 4 days; read-out: RSV HEp-2 EC50
Outline: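 Cytopathic-effect protection assay: HEp-2 cells (50,000/mL) infected with pre-titered RSV A2 onto 3-fold serial compound dilutions, incubated 4 days at 37° C. Cell viability read by CellTiter-Glo luminescence; percent inhibition derived against 0% and 100% virus-inhibition controls.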

HRV16 = HRV16 HeLa EC50 (cytopathic effect in H1-HeLa cells); conditions: 96 h, Table 3; H1-HeLa cells, 96 h; read-out: HRV16 HeLa EC50
Outline: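 Read-out is luminescent cell viability (CellTiter-Glo) after 96 h of infection at 33 °C, scaled between uninfected and infected-untreated wells. Before infection with titrated virus, compounds went onto H1-HeLa cells as triplicate 3-fold dilution series.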

DENV2 replicon = assay: DENV-2 Huh-7 Rep EC50 (replicon luminescence); conditions: Dengue virus, DENV2, Huh-7, 48 h, read-out: DENV-2 REP Huh7 EC50
Outline: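 EC50 derived from luminescence dose-response, normalised to DMSO-only 0% inhibition wells, after 1.5 h with EnduRen substrate. Compounds were first exposed for 48 h at 37° C to DENV2 replicon Huh-7 cells (5,000/well).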

SMILES	EC50 (RSV A2) [nM]	EC50 (RSV strain A2) [nM]	EC50 (HRV16) [nM]	EC50 (DENV2 replicon) [nM]
CO[C@H](C)C(=O)O[C@H]1[C@H](c2ccc3c(N)ncnn23)O[C@](C#N)(CO[P@@](=O)(N[C@@H](C)C(=O)OC(C)C)Oc2ccccc2)[C@H]1OC(=O)[C@@H](C)OC [Example 154, (2R,3S,4S,5S)-5-(4-aminopyrrolo[2,1-f][1,2,4]triazin-7-yl)-2-cyano-2-((((S)-(((S)-1-isopropoxy-1-oxopropan-2-yl)amino)(phenoxy)phosphoryl)oxy)methyl) tetrahydrofuran-3,4-diyl (2R,2′R)-bis(2-methoxypropanoate)]	114	185	874	20500
CO[C@H](C)C(=O)Nc1ncnn2c([C@@H]3O[C@](C#N)(CO[P@@](=O)(N[C@@H](C)C(=O)OC(C)C)Oc4ccccc4)[C@@H](OC(=O)[C@@H](C)OC)[C@H]3OC(=O)[C@@H](C)OC)ccc12 [Example 155, (2R,3S,4S,5S)-2-cyano-2-((((S)-(((S)-1-isopropoxy-1-oxopropan-2-yl)amino)(phenoxy)phosphoryl)oxy)methyl)-5-(4-((R)-2-methoxypropanamido)pyrrolo[2,1-f][1,2,4]triazin-7-yl)tetrahydrofuran-3,4-diyl (2R,2′R)-bis(2-methoxypropanoate)]	294	437	2680	29200
CC(C)OC(=O)[C@H](C)N[P@](=O)(OC[C@@]1(C#N)O[C@@H](c2ccc3c(N)ncnn23)[C@H](OC(=O)C2CCOCC2)[C@@H]1OC(=O)C1CCOCC1)Oc1ccccc1 [Example 156, (2R,3S,4S,5S)-5-(4-aminopyrrolo[2,1-f][1,2,4]triazin-7-yl)-2-cyano-2-((((S)-(((S)-1-isopropoxy-1-oxopropan-2-yl)amino)(phenoxy)phosphoryl)oxy)methyl) tetrahydrofuran-3,4-diyl bis(tetrahydro-2H-pyran-4-carboxylate)]	> 5000	456	21700	> 50000
CC(C)OC(=O)[C@H](C)N[P@](=O)(OC[C@@]1(C#N)O[C@@H](c2ccc3c(N)ncnn23)[C@H](OC(=O)[C@@H](N)C(C)C)[C@@H]1OC(=O)[C@@H](N)C(C)C)Oc1ccccc1 [Example 157, (2R,3S,4S,5S)-5-(4-aminopyrrolo[2,1-f][1,2,4]triazin-7-yl)-2-cyano-2-((((S)-(((S)-1-isopropoxy-1-oxopropan-2-yl)amino)(phenoxy)phosphoryl)oxy)methyl)tetrahydrofuran-3,4-diyl (2S,2'S)-bis(2-amino-3-methylbutanoate)]	1590	227	1790	25800
CO[C@@H](C)C(=O)O[C@H]1[C@H](c2ccc3c(N)ncnn23)O[C@](C#N)(CO[P@@](=O)(N[C@@H](C)C(=O)OC(C)C)Oc2ccccc2)[C@H]1OC(=O)[C@H](C)OC [Example 158, (2R,3S,4S,5S)-5-(4-aminopyrrolo[2,1-f][1,2,4]triazin-7-yl)-2-cyano-2-((((S)-(((S)-1-isopropoxy-1-oxopropan-2-yl)amino)(phenoxy)phosphoryl)oxy)methyl) tetrahydrofuran-3,4-diyl (2S,2'S)-bis(2-methoxypropanoate)]	52	139	731	15700
CCC(=O)O[C@H]1[C@H](c2ccc3c(N)ncnn23)O[C@](C#N)(COP(=O)(N[C@@H](C)C(=O)OC[C@H]2CC[C@H](N)CC2)Oc2ccccc2)[C@H]1OC(=O)CC (stereo partly drawn) [Example 159, (2R,3S,4S,5S)-2-((((((S)-1-(((1r,4S)-4-aminocyclohexyl)methoxy)-1-oxopropan-2-yl)amino)(phenoxy)phosphoryl)oxy)methyl)-5-(4-aminopyrrolo[2,1-f][1,2,4]triazin-7-yl)-2-cyanotetrahydrofuran-3,4-diyl dipropionate]	1550	7990	33100	> 50000
